{"source": "patent US5874443A", "about": "“Isoquinoline derivatives and isoquinoline combinatorial libraries” (Trega Biosciences, Inc., priority 1996, dated 1999)", "note": "pIC50: −log10 of the molar value. “Also recorded” adds a separate entry of the source."}
{"biological_target": "T1, σ receptor (Rattus norvegicus, UniProt Q9R0C9)", "T1 construct": "The brains are thawed, the cerebella removed and the remaining tissue weighed; tissue Rockland (Gilbertsville, Pa.); host or cells: rat brain without cerebellum, crude particulate membranes", "T1 sequence (Q9R0C9 whole entry)": "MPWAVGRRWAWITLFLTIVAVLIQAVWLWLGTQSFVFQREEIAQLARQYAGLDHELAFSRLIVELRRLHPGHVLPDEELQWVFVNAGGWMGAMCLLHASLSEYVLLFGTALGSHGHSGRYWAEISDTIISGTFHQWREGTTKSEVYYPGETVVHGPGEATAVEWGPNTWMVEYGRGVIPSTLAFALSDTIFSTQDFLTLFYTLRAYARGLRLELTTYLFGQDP", "assay": "σ receptor radio-receptor assay, inhibition of radiolabeled pentazocine binding", "details": "Table IV; individual compounds, R1 varied"}
{"smiles": "COc1ccc(Cc2ccc(C3C(C(=O)NCC45CC6CC(CC(C6)C4)C5)c4ccccc4C(=O)N3CCCCCCC(N)=O)o2)cc1", "note": "(centres unmarked) [Compound 1]", "pIC50": 7.25}
{"smiles": "COc1ccc(Cc2ccc(C3C(C(=O)NCC45CC6CC(CC(C6)C4)C5)c4ccccc4C(=O)N3C[C@H](N)C(N)=O)o2)cc1", "note": "(some centres unmarked) [Compound 3]", "pIC50": 7.15}
{"smiles": "COc1ccc(Cc2ccc(C3C(C(=O)NCC45CC6CC(CC(C6)C4)C5)c4ccccc4C(=O)N3C[C@H]3CC[C@H](C(N)=O)CC3)o2)cc1", "note": "(some centres unmarked) [Pool 2]", "pIC50": 7.17}
{"smiles": "COc1ccc(Cc2ccc(C3C(C(=O)NCC45CC6CC(CC(C6)C4)C5)c4ccccc4C(=O)N3CCOCCOCC(N)=O)o2)cc1", "note": "(centres unmarked) [Pool 5]", "pIC50": 6.93}
{"smiles": "COc1ccc(Cc2ccc(C3C(C(=O)NCC45CC6CC(CC(C6)C4)C5)c4ccccc4C(=O)N3CC(N)=O)o2)cc1", "note": "(centres unmarked) [Pool 6]", "pIC50": 6.91}
{"smiles": "COc1ccc(Cc2ccc(C3C(C(=O)NCC45CC6CC(CC(C6)C4)C5)c4ccccc4C(=O)N3Cc3ccc(C(N)=O)cc3)o2)cc1", "note": "(centres unmarked) [Pool 7]", "pIC50": 6.89}
{"smiles": "COc1ccc(Cc2ccc(C3C(C(=O)NCC45CC6CC(CC(C6)C4)C5)c4ccccc4C(=O)N3CCCC[C@H](N)C(N)=O)o2)cc1", "note": "(some centres unmarked) [Pool 8]", "pIC50": 6.82}
{"smiles": "COc1ccc(Cc2ccc(C3C(C(=O)NCC45CC6CC(CC(C6)C4)C5)c4ccccc4C(=O)N3CCCCC(N)=O)o2)cc1", "note": "(centres unmarked) [Pool 9]", "pIC50": 6.64}
{"smiles": "COc1ccc(Cc2ccc(C3C(C(=O)NCC45CC6CC(CC(C6)C4)C5)c4ccccc4C(=O)N3CCC(N)=O)o2)cc1", "note": "(centres unmarked) [Pool 10]", "pIC50": 6.45}
{"biological_target": "T1, σ receptor", "assay": "σ receptor radio-receptor assay, inhibition of radiolabeled pentazocine binding", "details": "in words; Example 44"}
{"smiles": "COc1ccc(Cc2ccc(C3C(C(=O)NCC45CC6CC(CC(C6)C4)C5)c4ccccc4C(=O)N3CCCCCCC(N)=O)o2)cc1", "note": "(centres unmarked) [Compound 1]", "activity in the σ receptor assay (iterative approach)": "most active"}
{"biological_target": "T1, σ receptor", "assay": "σ receptor radio-receptor assay, inhibition of radiolabeled pentazocine binding", "details": "in words; Example 51"}
{"smiles": "COc1ccc(Cc2ccc(C3C(C(=O)NCC4CCCCC4)c4ccccc4C(=O)N3CCCCCCC(N)=O)o2)cc1", "note": "(centres unmarked)", "activity in the σ receptor screen (positional scan)": "most active; also recorded: virtually equal activity"}
